± gives the expanded uncertainty stated by the source.
Key:
[1] = refractive index (Na D-line) (dimensionless); xn = mol fraction of the nth substance listed; settings: 298.15 K, 101 kPa, Liquid, Standard Abbe refractometry
[2] = xn = mol fraction of the nth substance listed; settings: 298.15 K, 101 kPa, Liquid; for viscosity: Capillary tube (Ostwald / Ubbelohde) method
[3] = for Normal melting temperature: Crystal; for vapor or sublimation pressure: Ebulliometric method (Recirculating still)
[4] = refractive index (Na D-line) (dimensionless); settings: 298.15 K; 101.33 kPa; Liquid; Standard Abbe refractometry

CCOC(=O)CCC(=O)OCC [diethyl butanedioate] + O=C1CCCO1
Settings | mass density, [2] [kg/m3] | refractive index, [1] | viscosity, [2] [mPa·s]
x2 = 0 | 1035.5 ± 0.1 | 1.4179 ± 0.0004 | 2.393 ± 0.021
x2 = 0.05 | 1037.5 ± 0.1 | 1.4185 ± 0.0004 | 2.381 ± 0.021
x2 = 0.1 | 1040 ± 0.1 | 1.419 ± 0.0004 | 2.375 ± 0.02
x2 = 0.2 | 1045.3 ± 0.1 | 1.4201 ± 0.0004 | 2.356 ± 0.02
x2 = 0.2999 | 1051.1 ± 0.1 | 1.4213 ± 0.0004 | 2.318 ± 0.02
x2 = 0.4 | 1057.8 ± 0.1 | 1.4227 ± 0.0004 | 2.284 ± 0.02
x2 = 0.5 | 1065.3 ± 0.1 | 1.4242 ± 0.0004 | 2.226 ± 0.019
x2 = 0.6 | 1073.8 ± 0.1 | 1.4259 ± 0.0004 | 2.153 ± 0.018
x2 = 0.7 | 1083.5 ± 0.2 | 1.4278 ± 0.0004 | 2.073 ± 0.018
x2 = 0.8 | 1094.9 ± 0.2 | 1.4299 ± 0.0004 | 1.952 ± 0.017
x2 = 0.9 | 1108.4 ± 0.2 | 1.4323 ± 0.0004 | 1.817 ± 0.015
x2 = 0.95 | 1116.2 ± 0.2 | 1.4336 ± 0.0004 | 1.745 ± 0.015

O [water]
Settings | Normal melting temperature [°C]
[3] | -0.10 ± 0.62

O [water] + O=C1CCCO1
x1 = 1
Settings | refractive index | viscosity [mPa·s]
[1] | 1.3325 ± 0.0004 | –
[2] | – | 0.8756 ± 0.0075

O=C1CCCO1 [γ-butyrolactone]
Settings | mass density [kg/m3]
[3], 298.15 K, 101.3 kPa, Liquid | 1124.5 ± 0.2

Settings | viscosity [mPa·s]
[3], 298.15 K, 101.3 kPa, Liquid, Capillary tube (Ostwald / Ubbelohde) method | 1.654 ± 0.014

[3], Liquid
Settings | vapor or sublimation pressure [kPa]
376.99 K | 4 ± 0.2
400.58 K | 10 ± 0.2
405.68 K | 12 ± 0.2
420.76 K | 20 ± 0.2
433.66 K | 30 ± 0.2
443.36 K | 40 ± 0.2
451.22 K | 50 ± 0.2
457.88 K | 60 ± 0.2
463.68 K | 70 ± 0.2
468.84 K | 80 ± 0.2
473.49 K | 90 ± 0.2
477.54 K | 100 ± 0.2

Settings | Normal melting temperature [°C] | refractive index
[3] | -43.72 ± 0.62 | –
[4] | – | 1.435 ± 0.0004

O=C1CCCO1 [γ-butyrolactone] + CCOC(=O)CCC(=O)OCC
x1 = 1
Settings | mass density [kg/m3] | refractive index | viscosity [mPa·s]
[1] | – | 1.435 ± 0.0004 | –
[2] | 1124.5 ± 0.2 | – | 1.654 ± 0.014

O=C1CCCO1 [γ-butyrolactone] + O
Settings | mass density, [2] [kg/m3] | refractive index, [1] | viscosity, [2] [mPa·s]
x2 = 0 | 1124.5 ± 0.2 | 1.435 ± 0.0004 | 1.654 ± 0.014
x2 = 0.05 | 1123 ± 0.2 | 1.4337 ± 0.0004 | 1.621 ± 0.014
x2 = 0.1002 | 1121.5 ± 0.2 | 1.4325 ± 0.0004 | 1.6 ± 0.013
x2 = 0.2 | 1118.2 ± 0.2 | 1.4295 ± 0.0004 | 1.606 ± 0.013
x2 = 0.3 | 1115.1 ± 0.2 | 1.4265 ± 0.0004 | 1.645 ± 0.014
x2 = 0.4 | 1110.9 ± 0.2 | 1.4226 ± 0.0004 | 1.706 ± 0.014
x2 = 0.5 | 1105.9 ± 0.2 | 1.4175 ± 0.0004 | 1.766 ± 0.015
x2 = 0.6 | 1098.8 ± 0.2 | 1.4116 ± 0.0004 | 1.8 ± 0.015
x2 = 0.7 | 1088.6 ± 0.2 | 1.4017 ± 0.0004 | 1.787 ± 0.015
x2 = 0.8 | 1073.2 ± 0.1 | 1.3888 ± 0.0004 | 1.668 ± 0.014
x2 = 0.9 | 1047.1 ± 0.1 | 1.3684 ± 0.0004 | 1.385 ± 0.012
x2 = 0.95 | 1026.6 ± 0.2 | 1.3531 ± 0.0004 | 1.16 ± 0.0098
